Assay results: patent publication US20020164637A1, “SCREEN FOR ECDYSONE RECEPTOR LIGANDS” (priority 1996, published 2002)

Experiments:
EcR-Usp complexes [1] = molecular target: T1, EcR-Usp complexes (Drosophila melanogaster, UniProt P34021); test: Competitive displacement of 3H-Ponasterone A binding to extract of yeast co-expressing EcR and Usp; conditions: unlabelled ligand, FIG. 4, read-out: IC50 for displacing 3H-Ponasterone binding
T1 construct: An immunoreactive polypeptide corresponding to the full EcR (100 kDa) was detected; ubiquitin (N, cleaved yes); made in house; host or cells: Saccharomyces cerevisiae strain BJ2168 (plasmids YEpEcR and YEpcUSP); unpurified cytosolic extract
T1 sequence (P34021 1-878): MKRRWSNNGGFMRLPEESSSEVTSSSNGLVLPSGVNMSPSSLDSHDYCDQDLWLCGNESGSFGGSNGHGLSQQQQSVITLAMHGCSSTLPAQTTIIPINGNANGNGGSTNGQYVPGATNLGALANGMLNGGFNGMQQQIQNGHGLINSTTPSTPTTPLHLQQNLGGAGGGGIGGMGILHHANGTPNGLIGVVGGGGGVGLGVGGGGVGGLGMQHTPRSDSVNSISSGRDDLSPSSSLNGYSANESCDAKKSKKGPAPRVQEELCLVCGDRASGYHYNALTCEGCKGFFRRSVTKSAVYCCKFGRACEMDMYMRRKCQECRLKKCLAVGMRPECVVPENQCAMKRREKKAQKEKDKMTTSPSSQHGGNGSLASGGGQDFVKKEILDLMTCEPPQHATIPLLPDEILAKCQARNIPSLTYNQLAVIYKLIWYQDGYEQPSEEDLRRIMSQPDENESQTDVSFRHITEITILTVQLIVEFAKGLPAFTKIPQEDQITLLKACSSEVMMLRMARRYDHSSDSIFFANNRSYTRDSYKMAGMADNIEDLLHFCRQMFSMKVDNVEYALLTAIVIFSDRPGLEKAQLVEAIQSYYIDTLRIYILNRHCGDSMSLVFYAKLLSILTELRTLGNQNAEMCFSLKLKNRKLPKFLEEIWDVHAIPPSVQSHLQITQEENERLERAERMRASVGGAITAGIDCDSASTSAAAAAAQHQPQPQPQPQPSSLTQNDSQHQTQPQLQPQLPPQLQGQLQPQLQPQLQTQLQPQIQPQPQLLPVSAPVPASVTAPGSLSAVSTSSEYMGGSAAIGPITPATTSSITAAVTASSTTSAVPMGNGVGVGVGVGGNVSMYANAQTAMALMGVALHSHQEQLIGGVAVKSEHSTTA
T1 sequence (P20153 1-508 partner): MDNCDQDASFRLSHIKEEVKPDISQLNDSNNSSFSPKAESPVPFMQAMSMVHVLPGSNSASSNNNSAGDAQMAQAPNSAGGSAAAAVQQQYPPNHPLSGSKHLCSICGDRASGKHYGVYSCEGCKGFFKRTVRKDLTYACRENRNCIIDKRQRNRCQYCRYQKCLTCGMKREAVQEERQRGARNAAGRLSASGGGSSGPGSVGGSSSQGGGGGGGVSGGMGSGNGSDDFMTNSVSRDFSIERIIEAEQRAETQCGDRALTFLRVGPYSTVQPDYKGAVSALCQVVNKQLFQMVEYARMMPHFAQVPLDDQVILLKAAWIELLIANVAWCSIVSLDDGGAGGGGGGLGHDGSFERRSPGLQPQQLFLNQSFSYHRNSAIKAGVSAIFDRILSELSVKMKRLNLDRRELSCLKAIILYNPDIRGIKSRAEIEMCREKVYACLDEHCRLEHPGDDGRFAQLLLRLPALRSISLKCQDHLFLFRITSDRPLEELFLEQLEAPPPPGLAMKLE
Protocol: (§1) Overnight cultures of yeast strains expressing EcR, Usp, EcR+Usp, and EcR+RxR were inoculated into 1 liter of selective medium and incubated for 16 h at 30° C. In strains expressing Usp, cupric sulfate was added to a final concentration of 100 μM and the culture incubated an additional 4 h at 30° C. The cells were harvested by centrifugation and washed twice in cold TEDG buffer (10 mM Tris-HCl, pH 8.0, 0.1 mM EDTA, 2 mM dithiothreitol, 10% glycerol). The cell pellet was then resuspended in TEDG buffer containing 0.4M NaCl, and vortexed with glass beads in ten 30-second bursts. The resulting homogenate is centrifuged at 1000×g for 10 min, after which the supernatant is centrifuged at 100,000×g for 30 min. The final supernatant is collected, diluted to 12.5 mg/ml protein with TEDG buffer, and stored in aliquots at −80° C.
(§2) The following components were added to each reaction mixture:
(§3) (i) 40 μl yeast extract (12.5 mg/ml protein);
(ii) 20 μl ^3H-Ponasterone A (New England Nuclear, 195 Ci/mmol; 20 μl contains 100,000 cpm and a final concentration of 2.5 nM in the reaction mixture);
(iii) 120 μl TEDG buffer containing the following protease inhibitors: PMSF (Sigma Chemical Co.), 0.15 mg/ml; leupeptin (Bachem), 0.04 mg/ml; chymostatin (Bachem), 0.03 mg/ml; and pepstatin (Sigma), 0.01 mg/ml; and
(iv) 20 μl test sample, 25 μM Muristerone A, or control diluent.
(§4) The reactions were incubated for 1 h at room temperature or at least 12 h at 4° C. Protein-bound and -free radioactivity were separated by hydroxylapatite chromatography or by filtration, the individual samples suspended in scintillation fluid and the radioactivity determined by scintillation counting.
Specificity of hormone binding to the yeast extract was measured by testing the ability of four known (unlabelled) EcR ligands to displace 3H-Ponasterone binding.
The methods described in Example 2 above were used to test a collection of natural products for EcR binding activity (FIG. 7). The products were tested at 1 and 10 μg/ml. Of 92 compounds tested, one (present in well H8) displaced 62% of ^3H-Ponasterone A binding activity at 10 μg/ml.
A chemical library containing 6592 samples was also screened using the methods described above. Each sample was present at 10 μg/ml. Compounds that displaced at least 75% of the radiolabel were scored as positives. These compounds were then used to generate competitive binding curves as described above.

EcR-Usp complexes [2] = molecular target: T1, EcR-Usp complexes; test: Saturation and Scatchard analysis of 3H-Ponasterone A binding to extract of yeast co-expressing EcR and Usp; conditions: extract from yeast strain co-expressing EcR and Usp
Protocol: as §1, §2, §3
(ii) 20 μl ^3H-Ponasterone A (New England Nuclear, 195 Ci/mmol; 20 μl contains 100,000 cpm and a final concentration of 2.5 nM in the reaction mixture); […]
as §4, with “counting. […]” for “counting.”

[3] = cited from earlier work
[4] = cited from earlier work; remark: listed apart in the source

Which IC50 (EcR-Usp complexes [1]) does the source give for 20-hydroxyecdysone here?
The IC50 was 500 nM.

For `CC(C)CC[C@@H](O)[C@](C)(O)[C@H]1CC[C@@]2(O)C3=CC(=O)[C@@H]4C[C@@H](O)[C@@H](O)C[C@]4(C)[C@H]3CC[C@]12C` [ponasterone A], which IC50 (EcR-Usp complexes [1]) is on record?
Its IC50 is 2 nM.

For `CC(C)CC[C@@H](O)[C@](C)(O)[C@H]1CC[C@@]2(O)C3=CC(=O)[C@]4(O)C[C@@H](O)[C@@H](O)C[C@]4(C)[C@H]3[C@H](O)C[C@]12C` [muristerone A], which IC50 (EcR-Usp complexes [1]) is on record?
The IC50 was 15 nM.

For ^3H-Ponasterone A, which Kd (EcR-Usp complexes [2]) is on record?
The Kd was 1.8 nM.

For `CC(C)(C)N(NC(=O)c1ccccc1)C(=O)c1ccccc1` [RH5849], which “fold less active in binding assays compared with 20-hydroxyecdysone” value [3] is on record?
Its value is “at least 30 fold”.

And the “fold less active in bioassays compared with 20-hydroxyecdysone” value [4]?
Its value is “at least 100 fold”.

And the IC50 (EcR-Usp complexes [1])?
Its IC50 is 12000 nM.
